# Results taken from US20250289804A1, “SUBSTITUTED INDOLE COMPOUNDS AND METHODS OF USE THEREOF” (NOVARTIS PHARMA AG, priority 2021, published 2025).
# Legend:
# [1] = system: MAC formation in normal human serum; assay: Human serum MAC formation assay (zymosan-coated plates, 50% normal human serum); conditions: 50% normal human serum with EGTA, 37° C. 30 minutes
# Procedure, shortened: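 Compounds preincubated 15 min at RT with 50% normal human serum in gelatin buffer plus 20 mM EGTA, then complement activated 30 min at 37 °C on zymosan-coated plates. C9 neoepitope ELISA, fluorogenic readout. Percent inhibition vs EDTA-serum baseline and EGTA-serum maximum; IC50 from 4-parameter fit of 10-point curves.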
# human C3bBb = human C3bBb (Homo sapiens (Human), UniProt P00751); assay: Human C3bBb enzyme assay (C3a generation from C3, ELISA); type: biochemical; conditions: starred values: assay conducted with 1 nM C3b:Bb enzyme; read-out: Human C3b:Bb IC50 Avg
# Procedure, shortened: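 C3bBb was preformed from human C3b, CFB and CFD at 1 μM each (30 min, RT) in PBS pH 7.4 with 100 μM NiCl2 and 0.05% CHAPS. Then 3 nM complex with 1 μM human C3 was incubated with compound for 1 h at RT. C3a was quantified by ELISA against a standard curve, and IC50 came from a 10-point 4-parameter fit.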
# C3G patients = conditions: after 12 weeks of treatment; cited from earlier work
# Chain of human C3bBb (P00751 260-764): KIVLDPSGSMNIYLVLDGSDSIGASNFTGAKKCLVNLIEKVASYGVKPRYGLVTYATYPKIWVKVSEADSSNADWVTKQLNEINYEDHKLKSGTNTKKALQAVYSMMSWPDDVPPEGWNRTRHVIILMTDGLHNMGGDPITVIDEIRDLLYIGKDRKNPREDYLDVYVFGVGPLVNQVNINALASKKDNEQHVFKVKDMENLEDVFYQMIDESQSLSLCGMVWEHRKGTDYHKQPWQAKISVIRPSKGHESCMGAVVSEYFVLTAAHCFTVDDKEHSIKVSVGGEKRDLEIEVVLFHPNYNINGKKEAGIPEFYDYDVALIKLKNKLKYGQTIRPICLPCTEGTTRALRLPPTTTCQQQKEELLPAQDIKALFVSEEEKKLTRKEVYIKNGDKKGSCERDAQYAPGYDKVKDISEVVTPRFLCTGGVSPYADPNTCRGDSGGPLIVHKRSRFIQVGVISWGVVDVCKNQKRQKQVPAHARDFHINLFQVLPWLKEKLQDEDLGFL
# Chain of human C3bBb (P01024 23-667 partner): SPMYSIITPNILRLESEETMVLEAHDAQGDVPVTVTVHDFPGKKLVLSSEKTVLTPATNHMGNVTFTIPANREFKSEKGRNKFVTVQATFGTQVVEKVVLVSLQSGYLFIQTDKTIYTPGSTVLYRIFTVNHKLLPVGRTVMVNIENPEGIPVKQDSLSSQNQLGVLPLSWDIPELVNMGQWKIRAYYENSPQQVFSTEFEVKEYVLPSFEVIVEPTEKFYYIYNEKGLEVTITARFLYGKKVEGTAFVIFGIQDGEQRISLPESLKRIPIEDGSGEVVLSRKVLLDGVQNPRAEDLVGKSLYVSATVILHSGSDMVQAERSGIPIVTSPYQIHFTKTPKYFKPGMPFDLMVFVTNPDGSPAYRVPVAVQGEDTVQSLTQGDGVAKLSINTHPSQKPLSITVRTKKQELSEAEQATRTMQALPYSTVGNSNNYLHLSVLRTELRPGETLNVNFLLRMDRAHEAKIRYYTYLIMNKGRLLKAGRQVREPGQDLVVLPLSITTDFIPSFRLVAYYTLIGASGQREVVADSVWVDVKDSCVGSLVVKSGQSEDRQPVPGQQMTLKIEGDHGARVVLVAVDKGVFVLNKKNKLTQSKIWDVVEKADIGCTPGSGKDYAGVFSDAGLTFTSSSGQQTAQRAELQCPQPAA
# Chain of human C3bBb (P01024 749-1663 partner): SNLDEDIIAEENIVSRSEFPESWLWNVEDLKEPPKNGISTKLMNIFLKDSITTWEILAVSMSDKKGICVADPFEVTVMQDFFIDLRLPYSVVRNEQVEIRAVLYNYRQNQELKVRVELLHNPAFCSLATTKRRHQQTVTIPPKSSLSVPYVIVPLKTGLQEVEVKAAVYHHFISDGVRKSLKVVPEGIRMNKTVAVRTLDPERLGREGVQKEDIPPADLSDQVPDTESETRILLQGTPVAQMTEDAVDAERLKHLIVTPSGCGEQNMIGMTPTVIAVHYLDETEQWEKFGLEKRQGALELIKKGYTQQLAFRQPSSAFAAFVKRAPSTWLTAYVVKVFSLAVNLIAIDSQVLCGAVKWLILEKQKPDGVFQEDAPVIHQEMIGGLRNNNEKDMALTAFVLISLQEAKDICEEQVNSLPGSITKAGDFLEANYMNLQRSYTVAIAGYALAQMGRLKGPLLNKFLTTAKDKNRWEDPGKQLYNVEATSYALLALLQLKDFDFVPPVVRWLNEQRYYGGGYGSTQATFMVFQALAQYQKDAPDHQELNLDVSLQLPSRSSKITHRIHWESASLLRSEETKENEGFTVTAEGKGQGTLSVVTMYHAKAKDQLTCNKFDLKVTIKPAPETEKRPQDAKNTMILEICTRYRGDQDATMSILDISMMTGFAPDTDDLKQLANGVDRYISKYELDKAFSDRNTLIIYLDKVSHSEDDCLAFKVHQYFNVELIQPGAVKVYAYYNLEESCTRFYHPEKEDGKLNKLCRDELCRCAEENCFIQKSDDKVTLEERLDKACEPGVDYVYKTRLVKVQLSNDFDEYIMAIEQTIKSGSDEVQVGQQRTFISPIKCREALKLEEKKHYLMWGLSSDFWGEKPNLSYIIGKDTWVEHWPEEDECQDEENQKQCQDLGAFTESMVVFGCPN
Structure (SMILES),IC50 (human C3bBb) [nM],IC50 [1] [nM],efficacy (proteinuria) (C3G patients)
"COc1cc(C)c2[nH]ccc2c1CN1CCC2(C[C@H]1c1ccc(C(=O)O)cc1)CC(F)(F)C2 [Example 45, (S)-4-(2,2-difluoro-7-((5-methoxy-7-methyl-1H-indol-4-yl)methyl)-7-azaspiro[3.5]nonan-6-yl)benzoic acid]",< 10,< 100,
"COc1cc(C)c2[nH]ccc2c1CN1CCC2(C[C@H]1c1ccc(C(=O)O)c(F)c1)CC(F)(F)C2 [Example 50, (S)-4-(2,2-difluoro-7-((5-methoxy-7-methyl-1H-indol-4-yl)methyl)-7-azaspiro[3.5]nonan-6-yl)-2-fluorobenzoic acid]",< 10,< 100,
"COc1cc(C)c2[nH]ccc2c1CN1CCC2(C[C@H]1c1ccc(C(=O)O)cc1)CC1(CC1)C2 [Example 51, (S)-4-(8-((5-methoxy-7-methyl-1H-indol-4-yl)methyl)-8-azadispiro[2.1.5^5.1^3]undecan-7-yl)benzoic acid]",< 10,< 100,
"COc1cc(C)c2[nH]ccc2c1CN1CCN(CC(F)(F)F)C[C@H]1c1ccc(C(=O)O)cc1 [Example 65, (R)-4-(1-((5-methoxy-7-methyl-1H-indol-4-yl)methyl)-4-(2,2,2-trifluoroethyl)piperazin-2-yl)benzoic acid]",10 to 25,200 to 300,
"COc1cc(C)c2[nH]ccc2c1CN1CCN(CCC(F)(F)F)C[C@H]1c1ccc(C(=O)O)cc1 [Example 68, (R)-4-(1-((5-methoxy-7-methyl-1H-indol-4-yl)methyl)-4-(3,3,3-trifluoropropyl)piperazin-2-yl)benzoic acid]",< 10,100 to 200,
"COc1cc(C)c2[nH]ccc2c1CN1CC[C@H](N2CC(C(F)F)C2)C[C@H]1c1ccc(C(=O)O)cc1 [Example 74, 4-((2S,4S)-4-(3-(difluoromethyl)azetidin-1-yl)-1-((5-methoxy-7-methyl-1H-indol-4-yl)methyl)piperidin-2-yl)benzoic acid]",< 10,100 to 200,
"Cc1cc(C2CC2)c(CN2CC[C@H](N3CC(C(F)(F)F)C3)C[C@H]2c2ccc(C(=O)O)cc2)c2cc[nH]c12 [Example 76, 4-((2S,4S)-1-((5-cyclopropyl-7-methyl-1H-indol-4-yl)methyl)-4-(3-(trifluoromethyl)azetidin-1-yl)piperidin-2-yl)benzoic acid]",< 10,100 to 200,
"Cc1cc(C2CC2)c(CN2CC[C@H](N3CC(C#N)C3)C[C@H]2c2ccc(C(=O)O)cc2)c2cc[nH]c12 [Example 77, 4-((2S,4S)-4-(3-cyanoazetidin-1-yl)-1-((5-cyclopropyl-7-methyl-1H-indol-4-yl)methyl)piperidin-2-yl)benzoic acid]",< 10,< 100,
"COc1cc(C)c2[nH]ccc2c1CN1CC[C@H](OC2COC2)C[C@H]1c1ccc(C(=O)O)cc1 [Example 82, 4-((2S,4S)-1-((5-methoxy-7-methyl-1H-indol-4-yl)methyl)-4-(oxetan-3-yloxy)piperidin-2-yl)benzoic acid]",10 to 25,200 to 300,
"COc1cc(C)c2[nH]ccc2c1CN1CC[C@H](OCC(F)F)C[C@H]1c1ccc(C(=O)O)cc1 [Example 83, 4-((2S,4S)-4-(2,2-difluoroethoxy)-1-((5-methoxy-7-methyl-1H-indol-4-yl)methyl)piperidin-2-yl)benzoic acid]",< 10,100 to 200,
"COc1cc(C)c2[nH]ccc2c1CN1CC[C@H](OC2CCC2)C[C@H]1c1ccc(C(=O)O)cc1 [Example 84, 4-((2S,4S)-4-cyclobutoxy-1-((5-methoxy-7-methyl-1H-indol-4-yl)methyl)piperidin-2-yl)benzoic acid]",25 to 50,200 to 300,
CCO[C@H]1CCN(Cc2c(OC)cc(C)c3[nH]ccc23)[C@H](c2ccc(C(=O)O)cc2)C1 [iptacopan],,,reduced proteinuria

# Continued, in another order:
IC50 (human C3bBb) [nM],Structure (SMILES),IC50 [1] [nM],efficacy (proteinuria) (C3G patients)
< 10,"COc1cc(C)c2[nH]cc(Cl)c2c1CN1CCC2(C[C@H]1c1ccc(C(=O)O)cc1)CC(F)(F)C2 [Example 53, (S)-4-(7-((3-chloro-5-methoxy-7-methyl-1H-indol-4-yl)methyl)-2,2-difluoro-7-azaspiro[3.5]nonan-6-yl)benzoic acid]",< 100,
< 10,"COc1cc(C)c2[nH]cc(F)c2c1CN1CCC2(C[C@H]1c1ccc(C(=O)O)cc1)CC(F)(F)C2 [Example 54, (S)-4-(2,2-difluoro-7-((3-fluoro-5-methoxy-7-methyl-1H-indol-4-yl)methyl)-7-azaspiro[3.5]nonan-6-yl)benzoic acid]",< 100,
< 10,"COc1cc(C)c2[nH]ccc2c1CN1CCC2(CC(=O)C2)C[C@H]1c1ccc(C(=O)O)cc1 [Example 58, (S)-4-(7-((5-methoxy-7-methyl-1H-indol-4-yl)methyl)-2-oxo-7-azaspiro[3.5]nonan-6-yl)benzoic acid]",100 to 200,
< 10,"COc1cc(C)c2[nH]ccc2c1CN1CC[C@]2(C[C@H]1c1ccc(C(=O)O)cc1)C[C@@H](F)C2 [Example 61, 4-((2S,4r,6S)-2-fluoro-7-((5-methoxy-7-methyl-1H-indol-4-yl)methyl)-7-azaspiro[3.5]nonan-6-yl)benzoic acid and 4-((2R,4s,6S)-2-fluoro-7-((5-methoxy-7-methyl-1H-indol-4-yl)methyl)-7-azaspiro[3.5]nonan-6-yl)benzoic acid]",< 100,
25 to 50,"COc1cc(C)c2[nH]ccc2c1CN1CCN(CC(F)F)C[C@H]1c1ccc(C(=O)O)cc1 [Example 66, (R)-4-(4-(2,2-difluoroethyl)-1-((5-methoxy-7-methyl-1H-indol-4-yl)methyl)piperazin-2-yl)benzoic acid]",100 to 200,
50 to 100,"COc1cc(C)c2[nH]ccc2c1CN1CCN(CC2CC(F)(F)C2)C[C@H]1c1ccc(C(=O)O)cc1 [Example 67, (R)-4-(4-((3,3-difluorocyclobutyl)methyl)-1-((5-methoxy-7-methyl-1H-indol-4-yl)methyl)piperazin-2-yl)benzoic acid]",300 to 500,
50 to 100,"COc1cc(C)c2[nH]ccc2c1CN1CCN(CC2(F)COC2)C[C@H]1c1ccc(C(=O)O)cc1 [Example 69, (R)-4-(4-((3-fluorooxetan-3-yl)methyl)-1-((5-methoxy-7-methyl-1H-indol-4-yl)methyl)piperazin-2-yl)benzoic acid]",100 to 200,
25 to 50,"COc1cc(C)c2[nH]ccc2c1CN1CCN(CCF)C[C@H]1c1ccc(C(=O)O)cc1 [Example 70, (R)-4-(4-(2-fluoroethyl)-1-((5-methoxy-7-methyl-1H-indol-4-yl)methyl)piperazin-2-yl)benzoic acid]",200 to 300,
25 to 50,"COc1cc(C)c2[nH]ccc2c1CN1CC[C@H](N2CC(OC(F)(F)F)C2)C[C@H]1c1ccc(C(=O)O)cc1 [Example 72, 4-((2S,4S)-1-((5-methoxy-7-methyl-1H-indol-4-yl)methyl)-4-(3-(trifluoromethoxy)azetidin-1-yl)piperidin-2-yl)benzoic acid]",200 to 300,
< 10,"COc1cc(C)c2[nH]ccc2c1CN1CC[C@H](N2CC(C#N)C2)C[C@H]1c1ccc(C(=O)O)cc1 [Example 73, 4-((2S,4S)-4-(3-cyanoazetidin-1-yl)-1-((5-methoxy-7-methyl-1H-indol-4-yl)methyl)piperidin-2-yl)benzoic acid]",100 to 200,
10 to 25,"COc1cc(C)c2[nH]cc(Cl)c2c1CN1CC[C@H](N2CC(C(F)(F)F)C2)C[C@H]1c1ccc(C(=O)O)cc1 [Example 75, 4-((2S,4S)-1-((3-chloro-5-methoxy-7-methyl-1H-indol-4-yl)methyl)-4-(3-(trifluoromethyl)azetidin-1-yl)piperidin-2-yl)benzoic acid]",200 to 300,
25 to 50,"Cc1cc(C2CC2)c(CN2CC[C@H](N3CC4(CC4)C3)C[C@H]2c2ccc(C(=O)O)cc2)c2cc[nH]c12 [Example 78, 4-((2S,4S)-1-((5-cyclopropyl-7-methyl-1H-indol-4-yl)methyl)-4-(5-azaspiro[2.3]hexan-5-yl)piperidin-2-yl)benzoic acid]",100 to 200,
50 to 100,"COc1cc(C)c2[nH]ccc2c1CN1CC[C@H](N2CC(S(C)(=O)=O)C2)C[C@H]1c1ccc(C(=O)O)cc1 [Example 79, 4-((2S,4S)-1-((5-methoxy-7-methyl-1H-indol-4-yl)methyl)-4-(3-(methylsulfonyl)azetidin-1-yl)piperidin-2-yl)benzoic acid]",100 to 200,
25 to 50,"COc1cc(C)c2[nH]ccc2c1CN1CC[C@H](N2CC(F)C2)C[C@H]1c1ccc(C(=O)O)cc1 [Example 80, 4-((2S,4S)-4-(3-fluoroazetidin-1-yl)-1-((5-methoxy-7-methyl-1H-indol-4-yl)methyl)piperidin-2-yl)benzoic acid]",200 to 300,
< 10,"COc1cc(C)c2[nH]ccc2c1CN1CC[C@H](N2CC(C(F)(F)F)C2)C[C@H]1c1ccc(C(=O)O)cc1 [Example 81, 4-((2S,4S)-1-((5-methoxy-7-methyl-1H-indol-4-yl)methyl)-4-(3-(trifluoromethyl)azetidin-1-yl)piperidin-2-yl)benzoic acid]",< 100,
< 10,"COc1cc(C)c2[nH]ccc2c1CN1CC[C@H](OCC(F)(F)F)C[C@H]1c1ccc(C(=O)O)cc1 [Example 85, 4-((2S,4S)-1-((5-methoxy-7-methyl-1H-indol-4-yl)methyl)-4-(2,2,2-trifluoroethoxy)piperidin-2-yl)benzoic acid]",100 to 200,
